# Test results as given in patent US20030166692A1, “Composition useful as anticancer drug and radiosensitizer” (PHARMGENIA CO., LTD. of Developmental Genetics Laboratory,, priority 2002, published 2003).
# Assays:
# [1] = test system: human NCI-H460 lung cancer cell line; test: MTT survival of NCI-H460 cancer cells after treatment with the compound of formula I; format: cell-based; conditions: for The survival rate of cancer cells: MTT, relative to DMSO control
# Protocol: (§1) In this Example, the effect of the compound of formula I as an anticancer agent was evaluated in vitro using human NCI-H460 and SNU638 cancer cell lines.
# (§2) The inventor purchased the compound of formula I from ChemBridge Corporation (San Diego, Calif.). Human NCI-H460 lung cancer cell line was obtained from ATCC (American Type Culture Collection), while human SNU638 gastric cancer cell line from KCLB (Korean Cell Line Bank).
# (§3) Under […] at 37° C., the human NCI-H460 and SNU638 cancer cell lines were incubated for 4 days in RPMI1640 culture medium (GIBCO/BRL, Grand Island, N.Y.) containing 10% calf fetus serum, penicillin 100 units/ml, and streptomycin 100 μg/ml.
# (§4) In the case of the NCI-H460 cell line, the compound of formula I was dissolved in DMSO (dimethyl sulfoxide) in order to make its concentration 0.1 ng/ml, 1 ng/ml, 10 ng/ml, 100 ng/ml, 1,000 ng/ml and 10,000 ng/ml, respectively. During incubation, the NCI-H460 cells were treated with each concentration of the compound of formula I, respectively.
# (§5) Then, any surviving cancer cells were dyed with MTT [3-(4,5-dimethylthiazol-2-yl)-2,5-diphenyltetrazolium bromide] and quantified at 540 nm with a microplate reader.
# (§6) Following Tables 1 and 2, and FIGS. 1 and 2, respectively show the survival rate of cancer cells, based on relative absorbance rate in reference to control (i.e. cancer cells treated with DMSO only). […] When treated with 1,000 ng/ml of the compound of formula I, about 80% (in the case of the NCI-H460 cell line) and 94% (in the case of the SNU638 cell line) of cancer cells were killed.
# [2] = test system: human SNU638 gastric cancer cell line; test: MTT survival of SNU638 cancer cells after treatment with the compound of formula I; format: cell-based; conditions: for The survival rate of cancer cells: MTT, relative to DMSO control
# Protocol: as §1, §2, §3
# as §4, with “SNU638” for “NCI-H460”, “DMSO” for “DMSO (dimethyl sulfoxide)”, “concentration” for “concentration 0.1 ng/ml,”
# as §5, §6
# [3] = test system: human A549 lung cancer cell line; test: Colony formation of A549 cells, compound followed by γ-irradiation; format: cell-based; conditions: for The survival rate of cancer cells (combination therapy): colony formation vs un-irradiated compound-treated cells
# Protocol: (§7) Using the same method as described in Example 1, human A549 and NCI-H460 lung cancer cell lines (obtained from ATCC) were incubated in RPMI1640 culture medium.
# (§8) Then, cancer cells were collected and placed into 60 mm (in diameter) petri dishes, 300 cells per petri dish. After the cancer cells were incubated in water-containing CO2 incubator at 37° C. for 24 hours, 1 ng/ml and 0.1 ng/ml of the compound of formula I dissolved in DMSO were treated to human NCI-H460 and A549 cells, respectively. Four (4) hours later, the cancer cells were irradiated with a different amount of γ-rays using ^137Cs γ-rays source (Atomic Energy of Canada, Ltd., Canada). After cultivated for 10 days, the colonies were dyed with 1% methylene blue. Colonies having diameters of 200 μm or more were counted using Colony Counter (Imaging Products, Chantilly, Va.).
# (§9) The results regarding colony formation are shown in the following Tables 3 and 4, and FIGS. 3 and 4.
# [4] = test system: NCI-H460 cells transplanted into mice; test: Tumor volume of NCI-H460 cells transplanted into mice; format: in vivo
# Protocol: Six (6) week old mice of BALB/cAnNCrj-nu/nu strain, which were obtained from Chales River Japan Inc. (Japan), were subcutaneously injected lung cancer cells (NCI-H460 cell line, 5×10^6 cells) to develop tumors.
# Mice were selected whose tumor volume reached 120 mm^3, and subdivided into 4 groups each having 5 mice: Group 1 (control, treated with DMSO); Group 2 (treated only with 10 mg/kg of the compound of formula I); Group 3 (treated only with 5 Gy of irradiation); and Group 4 (treated with 10 mg/kg of the compound of formula I and 5 Gy of irradiation).
# Five (5) times with 5 day intervals between each time, DMSO or the compound of formula I was subcutaneously injected to the mice of Groups 1, 2 and 4, and γ-rays were irradiated to the mice of Groups 3 and 4.
# The compound of formula I was dissolved in DMSO to make its concentration 5 mg/ml. 40 μl of DMSO and the compound of formula I each were administered to Groups 1, 2 and 4, respectively. The mice of Group 4 were subcutaneously injected with the compound of formula I, and 4 hours later followed by irradiation. The change of tumor volume in each Group was observed 11 times with 3 to 5 days of interval for 42 days.
# [5] = test system: human NCI-H460 lung cancer cell line; test: Colony formation of NCI-H460 cells, compound followed by γ-irradiation; format: cell-based; conditions: for The survival rate of cancer cells (combination therapy): colony formation vs un-irradiated compound-treated cells
# Protocol: as §7, §8, §9
smiles,measurement,setting,value
"CSC(=S)N/N=C(\c1ccccc1)c1ccccn1 [compound of formula I, N′-(phenyl-pyridin-2-yl-methylene)-hydrazine carbodithioic acid methyl ester]",The survival rate of cancer cells,[1]; 0.1 ng/ml,90.2%
same,cancer cells killed,[1]; 1 ng/ml,about 12%
same,The survival rate of cancer cells,[1]; 1 ng/ml,87.7%
same,The survival rate of cancer cells,[1]; 10 ng/ml,51.3%
same,The survival rate of cancer cells,[1]; 100 ng/ml,36.6%
same,cancer cells killed,"[1]; 1,000 ng/ml",about 80%
same,The survival rate of cancer cells,"[1]; 1,000 ng/ml",20%
same,The survival rate of cancer cells,"[1]; 10,000 ng/ml",2%
same,cancer cells killed,[2]; 1 ng/ml,~35%
same,The survival rate of cancer cells,[2]; 1 ng/ml,64.46%
same,The survival rate of cancer cells,[2]; 10 ng/ml,53.22%
same,The survival rate of cancer cells,[2]; 100 ng/ml,46.41%
same,cancer cells killed,"[2]; 1,000 ng/ml",~94%
same,The survival rate of cancer cells,"[2]; 1,000 ng/ml",5.71%
same,The survival rate of cancer cells,"[2]; 10,000 ng/ml",3.87%
same,The survival rate of cancer cells (combination therapy),[3]; 0.1 ng/ml compound then 1 Gy,53%
same,The survival rate of cancer cells (combination therapy),[3]; 0.1 ng/ml compound then 3 Gy,10%
same,The survival rate of cancer cells (combination therapy),[3]; 0.1 ng/ml compound then 5 Gy,2%
same,The survival rate of cancer cells (combination therapy),[3]; 0.1 ng/ml compound then 7 Gy,1%
same,cancer cells killed,"[3]; 0.1 ng/ml followed by 1 Gy, in comparison with 0.1 ng/ml and no irradiation",47%
same,increased anticancer effect in comparison with 1 Gy of irradiation only,[3]; 0.1 ng/ml in combination with 1 Gy,32%
same,radio-enhanced cancer treatment effect,"[3]; 1 Gy or more irradiated, 0.1 ng/ml",significantly effective
same,tumor volume,"[4]; Combination: 10 mg/kg s.c. + 5 Gy irradiation, 10 days",133 mm^3
same,tumor volume,"[4]; Combination: 10 mg/kg s.c. + 5 Gy irradiation, 13 days",268 mm^3
same,tumor volume,"[4]; Combination: 10 mg/kg s.c. + 5 Gy irradiation, 18 days",379 mm^3
same,tumor volume,"[4]; Combination: 10 mg/kg s.c. + 5 Gy irradiation, 21 days",539 mm^3
same,tumor volume,"[4]; Combination: 10 mg/kg s.c. + 5 Gy irradiation, 24 days",710 mm^3
same,tumor volume,"[4]; Combination: 10 mg/kg s.c. + 5 Gy irradiation, 26 days",760 mm^3
same,tumor volume,"[4]; Combination: 10 mg/kg s.c. + 5 Gy irradiation, 29 days",862 mm^3
same,tumor volume,"[4]; Combination: 10 mg/kg s.c. + 5 Gy irradiation, 33 days",950 mm^3
same,tumor volume,"[4]; Combination: 10 mg/kg s.c. + 5 Gy irradiation, 36 days","1,086 mm^3"
same,tumor volume,"[4]; Combination: 10 mg/kg s.c. + 5 Gy irradiation, 39 days","1,079 mm^3"
same,tumor volume,"[4]; Combination: 10 mg/kg s.c. + 5 Gy irradiation, 42 days","1,164 mm^3"
same,increase rate of the tumor volume,"[4]; Group 2 (compound only, 10 mg/kg) vs Group 1 (control)",much lower than in Group 1
same,increase in tumor volume,[4]; Group 4 (compound + 5 Gy irradiation) compared to Group 3 (irradiation only),little increase in tumor volume
same,tumor volume,"[4]; compound only, 10 mg/kg s.c., 10 days",179 mm^3
same,tumor volume,"[4]; compound only, 10 mg/kg s.c., 13 days",258 mm^3
same,tumor volume,"[4]; compound only, 10 mg/kg s.c., 18 days",614 mm^3
same,tumor volume,"[4]; compound only, 10 mg/kg s.c., 21 days",923 mm^3
same,tumor volume,"[4]; compound only, 10 mg/kg s.c., 24 days","1,274 mm^3"
same,tumor volume,"[4]; compound only, 10 mg/kg s.c., 26 days","1,766 mm^3"
same,tumor volume,"[4]; compound only, 10 mg/kg s.c., 29 days","2,211 mm^3"
same,tumor volume,"[4]; compound only, 10 mg/kg s.c., 33 days","2,759 mm^3"
same,tumor volume,"[4]; compound only, 10 mg/kg s.c., 36 days","3,374 mm^3"
same,tumor volume,"[4]; compound only, 10 mg/kg s.c., 39 days","3,787 mm^3"
same,tumor volume,"[4]; compound only, 10 mg/kg s.c., 42 days","4,133 mm^3"
same,The survival rate of cancer cells (combination therapy),[5]; 1 ng/ml compound then 1 Gy,37.5%
same,The survival rate of cancer cells (combination therapy),[5]; 1 ng/ml compound then 3 Gy,9%
same,The survival rate of cancer cells (combination therapy),[5]; 1 ng/ml compound then 5 Gy,1%
same,The survival rate of cancer cells (combination therapy),[5]; 1 ng/ml compound then 7 Gy,0.01%
same,cancer cells killed,"[5]; 1 ng/ml followed by 1 Gy, in comparison with 1 ng/ml and no irradiation",62.5%
same,enhanced anticancer effect in comparison with 1 Gy of irradiation,[5]; 1 ng/ml in combination with 1 Gy,27.5%
same,radio-enhanced cancer treatment effect,"[5]; 1 Gy or more irradiated, 1 ng/ml",significantly effective
